# Reference: BindingDB's records for patent US20250136596 (Insilico Medicine IP, 2025)
# Biological target: T1, Membrane-associated tyrosine- and threonine-specific cdc2-inhibitory kinase (Homo sapiens, UniProt Q99640)
# T1 sequence (Q99640 whole entry): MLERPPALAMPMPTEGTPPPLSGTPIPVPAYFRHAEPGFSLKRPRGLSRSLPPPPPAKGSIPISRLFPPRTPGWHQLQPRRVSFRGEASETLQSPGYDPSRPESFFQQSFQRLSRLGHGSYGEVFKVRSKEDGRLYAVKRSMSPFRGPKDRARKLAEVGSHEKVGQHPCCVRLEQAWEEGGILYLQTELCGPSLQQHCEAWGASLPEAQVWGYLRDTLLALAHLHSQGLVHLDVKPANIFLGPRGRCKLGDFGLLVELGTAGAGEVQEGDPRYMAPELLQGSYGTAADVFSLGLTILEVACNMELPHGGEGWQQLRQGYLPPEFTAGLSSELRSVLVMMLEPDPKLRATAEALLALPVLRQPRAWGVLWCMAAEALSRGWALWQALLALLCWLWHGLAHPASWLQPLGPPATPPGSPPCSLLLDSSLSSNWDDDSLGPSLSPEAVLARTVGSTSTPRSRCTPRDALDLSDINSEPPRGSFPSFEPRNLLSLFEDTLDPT
# Test: PKMYT1 HTRF Assay
# Procedure: Compound serial dilution is performed by Echo, and the final concentrations vary from 10 μM to 0.5 nM. This was filled by the addition of 5 μL/well of Enzyme solution to the assay plate containing the compound. The plate was centrifuged at 1000 rpm for 1 minute, and incubate 15 minutes at 25 […]. Then 5 μL/well of tracer solution (Tracer 178) was added to initiate the reaction, and incubate for 60 minutes at 25° C. Next 5 μL GST-Tb was added into the assay plate, the plate was centrifuged at 1000 rpm for 1 minute, and incubate for 15 minutes at 25 […]. The assay plate was read on Envision.
row,Structure (SMILES),IC50 [nM]
1,"Cc1ncc(-c2cc3c(Cl)c(-c4c(C)ccc(O)c4C)cnc3[nH]2)cn1 [US20250136596, Example 23]",< 10
2,"Cc1ncc(-c2[nH]c3ncc(-c4c(C)ccc(O)c4C)c(C#N)c3c2F)cn1 [US20250136596, Example 35]",< 10
3,"CNc1ncc(-c2cc3c(C#N)c(-c4c(C)ccc(O)c4C)cnc3[nH]2)cn1 [US20250136596, Example 41]",< 10
4,"COc1ncc(-c2cc3c(C#N)c(-c4c(C)ccc(O)c4C)cnc3[nH]2)cn1 [US20250136596, Example 51]",< 10
5,"Cc1ccc(O)c(C)c1-c1cnc2[nH]c(-c3cncc(C#N)c3)cc2c1C#N [US20250136596, Example 61]",< 10
6,"Cc1ccc(O)c(C)c1-c1cnc2[nH]c(-c3cnc(N)c(C(F)(F)F)c3)cc2c1C#N [US20250136596, Example 62]",< 10
7,"Cc1ccc(O)c(C)c1-c1cnc2[nH]c(-c3cnc(S(C)(=O)=O)nc3)cc2c1C#N [US20250136596, Example 95]",< 10
8,"Cc1ncc(-c2[nH]c3ncc(-c4c(C)ccc(O)c4C)c(C#N)c3c2C)cn1 [US20250136596, Example 107]",< 10
9,"Cc1ccc(O)c(C)c1-c1cnc2[nH]c(-c3cnc4cn[nH]c4c3)cc2c1C#N [US20250136596, Example 124]",< 10
